In US20120214760A1, “TREATMENT OF URINARY TRACT INFECTIONS WITH ANTIBACTERIAL AMINOGLYCOSIDE COMPOUNDS” (Achaogen, Inc., priority 2009, published 2012):
Values after ≈ are worked out from the molar mass of the structure shown. Where two headings read alike, the source gives them in different places.

What was measured:
[1] = tested on: P. aeruginosa ATCC 27853 (APAE001); assay: MIC, CLSI broth microdilution; format: cell-based; conditions: Pseudomonas aeruginosa
Outline: (§1)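 Broth microdilution per CLSI M7-A7, with serial two-fold compound dilutions in Mueller Hinton Broth mixed 1:1 with inoculum. Colonies from a previous-day agar plate were suspended in saline to a final 5×10^5 CFU/mL. Plates were incubated 20 hours at 35° C. in ambient air.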

[2] = tested on: E. coli ATCC 25922 (AECO001); assay: MIC, CLSI broth microdilution; format: cell-based; conditions: Escherichia coli
Outline: as §1

[3] = ATCC27853, read-out: MIC APAE001, Table 1, APAE001 is ATCC27853
[4] = ATCC25922, read-out: MIC AECO001, Table 1, AECO001 is ATCC25922

Compound: CN[C@@H]1[C@@H](O)[C@@H](O[C@@H]2[C@@H](O)[C@H](O[C@H]3OC(CNCC(O)CO)=CC[C@H]3N)[C@@H](N)C[C@H]2NC(=O)[C@H](O)CCN)OC[C@]1(C)O (stereo partly drawn) [Example 3, 6′-(2-Hydroxy-propanol)-1-(4-amino-2(R)-hydroxy-butyryl)-sisomicin]
- MIC [1, 3]: > 16 µg/mL
- MIC [2, 4]: 1 to 16 µg/mL (≈ 1.61 to 25.7 µM)

Compound: CN[C@@H]1[C@@H](O)[C@@H](O[C@@H]2[C@@H](O)[C@H](O[C@H]3OC(CNC(=O)C(O)CN)=CC[C@H]3N)[C@@H](N)C[C@H]2NC(=O)[C@@H](O)CN)OC[C@]1(C)O (stereo partly drawn) [Example 20, 6′-(3-Amino-2-hydroxy-propionyl)-1-(3-amino-2(S)-hydroxy-propionyl)-sisomicin]
- MIC [1, 3]: > 16 µg/mL
- MIC [2, 4]: > 16 µg/mL

Compound: CN[C@@H]1[C@@H](O)[C@@H](O[C@@H]2[C@@H](O)[C@H](O[C@H]3OC(CNCC4CCNCC4)=CC[C@H]3N)[C@@H](N)C[C@H]2NC(=O)[C@H](O)CN)OC[C@]1(C)O [Example 8, 6′-Methyl-piperidinyl-1-(3-amino-2(R)-hydroxy-propionyl)-sisomicin]
- MIC [1, 3]: 1 to 16 µg/mL (≈ 1.58 to 25.3 µM)
- MIC [2, 4]: < 1 µg/mL

Compound: CN[C@@H]1[C@@H](O)[C@@H](O[C@@H]2[C@@H](O)[C@H](O[C@H]3OC(CNCCCN)=CC[C@H]3N)[C@@H](N)C[C@H]2NC(=O)C(O)C2CNC2)OC[C@]1(C)O (stereo partly drawn) [Example 76, 6′-(3-Amino-propyl)-1-(2-(azetidin-3-yl)-2-hydroxy-acetyl)-sisomicin]
- MIC [1, 3]: 1 to 16 µg/mL (≈ 1.62 to 25.9 µM)
- MIC [2, 4]: 1 to 16 µg/mL (≈ 1.62 to 25.9 µM)

Compound: CN[C@@H]1[C@@H](O)[C@@H](O[C@@H]2[C@@H](O)[C@H](O[C@H]3OC(CN)=CC[C@H]3NC(=N)N)[C@@H](N)C[C@H]2NC(=O)[C@@H](O)CCN)OC[C@]1(C)O [Example 103, 2′-Guanidinium-1-(4-amino-2(S)-hydroxy-butyryl)-sisomicin]
- MIC ([1]; ATCC27853, Table 2, read-out: MIC P. aeruginosa): < 1 µg/mL
- MIC ([2]; ATCC25922, Table 2, read-out: MIC E. coli): < 1 µg/mL
- MIC ([2]; Table 1, AECO001 is ATCC25922, read-out: MIC AECO001): < 1 µg/mL

Compound: CN[C@@H]1[C@@H](O)[C@@H](O[C@@H]2[C@@H](O)[C@H](O[C@H]3OC(CNCC(O)CO)=CC[C@H]3N)[C@@H](N)C[C@H]2NC(=O)CO)OC[C@]1(C)O (stereo partly drawn) [Example 23, 6′-(2-Hydroxy-propanol)-1-(2-hydroxy-acetyl)-sisomicin]
- MIC [1, 3]: > 16 µg/mL
- MIC [2, 4]: > 16 µg/mL

Compound: CN[C@@H]1[C@@H](O)[C@@H](O[C@@H]2[C@@H](O)[C@H](O[C@H]3OC(CNCC(O)CO)=CC[C@H]3N)[C@@H](N)C[C@H]2NC(=O)[C@@H](O)CCN)OC[C@]1(C)O (stereo partly drawn) [Example 19, 6′-(2-Hydroxy-propanol)-1-(4-amino-2(S)-hydroxy-butyryl)-sisomicin]
- MIC [1, 3]: 1 to 16 µg/mL (≈ 1.61 to 25.7 µM)
- MIC [2, 4]: < 1 µg/mL

Compound: CN[C@@H]1[C@@H](O)[C@@H](O[C@@H]2[C@@H](O)[C@H](O[C@H]3OC(CN)=CC[C@H]3NC(=O)C3CCCN3)[C@@H](N)C[C@H]2NC(=O)[C@@H](O)CCN)OC[C@]1(C)O (stereo partly drawn) [Example 90]
- MIC [1, 3]: 1 to 16 µg/mL (≈ 1.55 to 24.8 µM)
- MIC [2, 4]: < 1 µg/mL

Compound: CN[C@@H]1[C@@H](O)[C@@H](O[C@@H]2[C@@H](O)[C@H](O[C@H]3OC(CNCCNC4CNC4)=CC[C@H]3N)[C@@H](N)C[C@H]2NC(=O)[C@@H](O)CN)OC[C@]1(C)O [Example 81, 6′-(N-(Azetidin-3-yl)-2-amino-ethyl)-1-(3-amino-2(S)-hydroxy-propionyl)-sisomicin]
- MIC [1, 3]: > 16 µg/mL
- MIC [2, 4]: 1 to 16 µg/mL (≈ 1.58 to 25.3 µM)

Compound: CN[C@@H]1[C@@H](O)[C@@H](O[C@@H]2[C@@H](O)[C@H](O[C@H]3OC(CNCC(O)C(N)=O)=CC[C@H]3N)[C@@H](N)C[C@H]2NC(=O)[C@@H](O)CN)OC[C@]1(C)O (stereo partly drawn) [Example 21, 6′-(2-Hydroxy-3-propionamide)-1-(3-amino-2(S)-hydroxy-propionyl)-sisomicin]
- MIC [1, 3]: 1 to 16 µg/mL (≈ 1.61 to 25.7 µM)
- MIC [2, 4]: 1 to 16 µg/mL (≈ 1.61 to 25.7 µM)

Compound: CN[C@@H]1[C@@H](O)[C@@H](O[C@@H]2[C@@H](O)[C@H](O[C@H]3OC(CNCCO)=CC[C@H]3N)[C@@H](N)C[C@H]2NC(=O)[C@H](O)CN)OC[C@]1(C)O [Example 9, 6′-(2-Hydroxy-ethyl)-1-(3-amino-2(R)-hydroxy-propionyl)-sisomicin]
- MIC [1, 3]: > 16 µg/mL
- MIC [2, 4]: 1 to 16 µg/mL (≈ 1.73 to 27.6 µM)

Compound: CN[C@@H]1[C@@H](O)[C@@H](O[C@@H]2[C@@H](O)[C@H](O[C@H]3OC(CNCCCN)=CC[C@H]3N)[C@@H](N)C[C@H]2NS(=O)(=O)CCN)OC[C@]1(C)O [Example 26, 6′-(3-Amino-propyl)-1-(2-amino-ethylsulfonamide)-sisomicin]
- MIC [1, 3]: 1 to 16 µg/mL (≈ 1.63 to 26.2 µM)
- MIC [2, 4]: 1 to 16 µg/mL (≈ 1.63 to 26.2 µM)

Compound: CN[C@@H]1[C@@H](O)[C@@H](O[C@@H]2[C@@H](O)[C@H](O[C@H]3OC(CNC[C@H]4C[C@H](N)C4)=CC[C@H]3N)[C@@H](N)C[C@H]2NC(=O)C2(O)CNC2)OC[C@]1(C)O [Example 63]
- MIC [1, 3]: 1 to 16 µg/mL (≈ 1.59 to 25.4 µM)
- MIC [2, 4]: < 1 µg/mL
